Measured values as given in patent US20250000767A1, “FORMULATIONS AND METHODS FOR SKIN REGENERATION” (ENTRINSIC, LLC, priority 2023, published 2025).

Columns and labels:
Type in all cases: cell-based, human
[1] = system: skin barrier marker genes in differentiated NHEK; assay: comparative analysis of qPCR data from two donors with scoring system, single amino acids; conditions: for ranking as most effective or least effective amino acids (scoring system): qPCR data from two donors
Description: The scoring system was developed to address the numerous variables arising from the experimental results. […] See, e.g., FIGS. 3 and 4.
(§1) To test the effect of amino acid treatment on epithelial skin barrier, a cellular model of differentiated normal human epidermal keratinocytes (NHEK) was utilized. Commercially available NHEK (ATCC), derived from three diverse healthy donors, were used.

[2] = system: EGF, PDGF, FGF2, and PPARD genes (skin barrier markers); assay: single amino acids and combinations on barrier marker genes EGF, FGF2, PDGF, PPARD in differentiated NHEK (FIG. 28); conditions: alone or in combination; action on skin barrier markers
Method: Treatment time-4 h. […] Exemplary barrier marker genes examined as follows: Epidermal growth factor (EGF); fibroblast growth factor 2 (FGF2); platelet derived growth factor (PDGF); Peroxisome Proliferator Activated Receptor Delta (PPARD).
Once the skin barrier marker panel was identified, a scoring system by which to evaluate different amino acids or combinations thereof under consideration was developed. The scoring system was developed to address the numerous variables arising from the experimental results. […] Sec, e.g., FIG. 28. […] See, e.g., FIG. 29.
as §1
The marker genes: epidermal growth factor (EGF); platelet-derived growth factor (PDGF), fibroblast growth factor 2 (FGF2), peroxisome proliferator activated receptor delta (PPARD).
Amino acid(s) are mixed in previously established concentrations in water and added to amino acid-deprived culture medium.
mRNA is extracted, converted to cDNA, and analyzed by qPCR method using custom TaqMan array 384-well plates (Thermo Fisher Scientific) containing the above-mentioned genes. Control housekeeping genes were included to normalize the mRNA expression: GAPDH and/or YWHAZ. The array plate contained the genes and samples were analyzed in by qPCR.

TGFB mRNA = TGFB mRNA fold change in donor keratinocytes, 4GAA and retinol (qPCR); conditions: 4 h, amino acid-deprived medium, 4GAA 4 mM, ROL 10 μM
Method: (§2) FIGS. 17A-17C show the fold change of a specific gene mRNA comparing the 4 amino acid combination (Ala, Gln, Gly, Ser; 4GAA; 4 mM), and retinol (ROL; 10 μM), alone or in combination, to control (CTR; untreated control without amino acids or retinol) with Donor E, Donor G. Donor O, Donor R, and Donor T human-derived epidermal keratinocytes (NHEK) with a 4 h treatment in amino acid (AA)-deprived medium. The data are shown in graphical form showing CTR; 4GAA (4 mM); ROL (10 μM); 4GAA (4 mM)+ROL (10 μM) combination.
(§3) Keratinocytes from different donors (e.g., human-derived epidermal keratinocytes (NHEK)), skin equivalents (e.g., 3D models (human epidermal skin equivalents)), or fibroblasts (e.g., human dermal fibroblasts, adult (HDFa)) were cultured in amino acid-deprived media or complete media for 4 hours or 24 hours after complete differentiation and, in parallel, were treated with an amino acid combination (4GAA; alanine, glutamine, glycine, serine) at 4 mM, 10 μM retinol (ROL), or the combination of 4 mM 4GAA and 10 μM ROL. Cells were harvested, RNA was extracted, and qPCR analysis was performed with a housekeeping gene, e.g., GAPDH.
(§4) FIGS. 17A-17C and 18A-18C show the graphical results of the fold change, where the average fold change is depicted by the horizontal bar for each condition and each of the donors (Donors E, G, O, R, T) is depicted by a colored circle. […]

HAS3 mRNA = HAS3 mRNA fold change in donor keratinocytes, 4GAA and retinol (qPCR); conditions: 4GAA 4 mM, ROL 10 μM
Method: (§5) FIGS. 18A-18C show the fold change of a specific gene mRNA comparing the 4 amino acid combination (Ala, Gln, Gly, Ser; 4GAA; 4 mM), and retinol (ROL; 10 μM), alone or in combination with Donor E. Donor G. Donor O. Donor R. and Donor T human-derived epidermal keratinocytes (NHEK) to control (CTR; untreated control without amino acids or retinol) with a 4 h treatment in amino acid (AA)-deprived medium. The data of FIGS. 18A-18C are shown in graphical form showing CTR; 4GAA (4 mM); ROL (10 μM); 4GAA (4 mM)+ROL (10 μM) combination. […] FIGS. 18D-18F show the data in tabular form (Donor E (n=3). Donor G (n=3). Donor O (n=3). Donor R (n=3), and Donor T (n=3)) for fold change of HAS1 mRNA. HAS2 mRNA, and HAS3 mRNA, respectively, and in tabular form showing the fold change for each of the specified conditions under each respective graphical form.
(§6) FIGS. 19A-19D show the fold change of a specific gene mRNA comparing the 4 amino acid combination (Ala. Gln. Gly, Ser; 4GAA; 4 mM), and retinol (ROL; 10 μM), alone or in combination to control (CTR; untreated control without amino acids or retinol) with Donor O human-derived epidermal keratinocytes (NHEK) with a 24 h treatment in complete medium. The data of FIGS. 19A-19D are shown in graphical form showing CTR; 4GAA (4 mM); ROL (10 μM); 4GAA (4 mM)+ROL (10 μM) combination. […]

COL1A1 mRNA = COL1A1 mRNA fold change in donor keratinocytes, 4GAA and retinol (qPCR); conditions: 4 h, amino acid-deprived medium, 4GAA 4 mM, ROL 10 μM
Method: as §2, §3, §4

HAS2 mRNA = HAS2 mRNA fold change in donor keratinocytes, 4GAA and retinol (qPCR); conditions: 4GAA 4 mM, ROL 10 μM
Method: as §5, §6

[3] = Donor O and Donor R keratinocytes, 24 h, complete medium
[4] = donor keratinocytes, 4 h, amino acid-deprived medium

| Structure (SMILES) | ranking as most effective or least effective amino acids (scoring system) [1] | effect on skin regeneration including skin barrier function [2] | other results |
| --- | --- | --- | --- |
| C[C@H](N)C(=O)O [Ala, alanine] | most effective | beneficial effect | – |
| N=C(N)NCCC[C@H](N)C(=O)O [Arg, arginine] | – | beneficial effect | effects in preliminary screens [1]: positive effects |
| N[C@@H](CC(=O)O)C(=O)O [Asp, aspartic acid] | least effective | – | – |
| N[C@@H](CS)C(=O)O [Cys, cysteine] | least effective | – | – |
| NC(=O)CC[C@H](N)C(=O)O [Gln, glutamine] | most effective | beneficial effect | – |
| NCC(=O)O [Gly, glycine] | most effective | beneficial effect | – |
| O=C(O)[C@@H]1CCCN1 [Pro] | least effective | – | – |
| CC1=C(/C=C/C(C)=C/C=C/C(C)=C/CO)C(C)(C)CCC1 [ROL, retinol] | – | – | TGFB mRNA expression (TGFB mRNA): upregulated; HAS3 mRNA gene expression (HAS3 mRNA; [3]): upregulated; HAS3 gene expression (HAS3 mRNA; [4]): upregulated; COL1A1 mRNA expression (COL1A1 mRNA): upregulated; HAS2 mRNA gene expression (HAS2 mRNA; [3]): upregulated; HAS2 gene expression (HAS2 mRNA; [4]): upregulated |
| N[C@@H](CO)C(=O)O [Ser, serine] | most effective | beneficial effect | – |
| C[C@@H](O)[C@H](N)C(=O)O [Thr, threonine] | least effective | beneficial effect | – |
| N[C@@H](Cc1c[nH]c2ccccc12)C(=O)O [Trp, tryptophan] | – | beneficial effect | effects in preliminary screens [1]: positive effects |
| N[C@@H](Cc1ccc(O)cc1)C(=O)O [Tyr, tyrosine] | least effective | – | – |
| CC[C@H](C)[C@H](N)C(=O)O [isoleucine] | – | beneficial effect | – |
| CC(C)[C@H](N)C(=O)O [valine] | – | beneficial effect | – |
